Data taken from PMC7660874 (Journal of the American Heart Association: Cardiovascular …, 2020).

Key:
[1] = target: human TASK-1 (hTASK-1, hK2P3.1) (Homo sapiens, UniProt O14649); assay: two-electrode voltage clamp in Xenopus oocytes at […]; format: cell-based; details: read-out: % of control current at 100 μmol/L
[2] = target: porcine TASK-1 (pTASK-1) (Sus scrofa, UniProt A0A286ZMZ4); assay: as above; format: cell-based; details: read-out: % of control current at 100 μmol/L
Sequence of porcine TASK-1 (pTASK-1) (A0A286ZMZ4 1-401): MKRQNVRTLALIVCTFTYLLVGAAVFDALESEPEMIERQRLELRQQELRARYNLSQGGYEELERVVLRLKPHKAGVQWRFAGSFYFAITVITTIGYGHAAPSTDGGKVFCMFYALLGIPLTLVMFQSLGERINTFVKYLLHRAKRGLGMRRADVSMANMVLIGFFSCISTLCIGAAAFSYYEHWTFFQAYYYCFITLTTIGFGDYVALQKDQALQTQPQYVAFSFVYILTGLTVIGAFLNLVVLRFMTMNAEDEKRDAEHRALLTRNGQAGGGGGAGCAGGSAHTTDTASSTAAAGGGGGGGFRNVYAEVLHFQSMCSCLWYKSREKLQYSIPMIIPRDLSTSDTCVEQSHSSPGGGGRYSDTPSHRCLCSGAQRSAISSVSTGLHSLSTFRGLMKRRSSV

Sequence of human TASK-1 (hTASK-1, hK2P3.1) (O14649 whole entry): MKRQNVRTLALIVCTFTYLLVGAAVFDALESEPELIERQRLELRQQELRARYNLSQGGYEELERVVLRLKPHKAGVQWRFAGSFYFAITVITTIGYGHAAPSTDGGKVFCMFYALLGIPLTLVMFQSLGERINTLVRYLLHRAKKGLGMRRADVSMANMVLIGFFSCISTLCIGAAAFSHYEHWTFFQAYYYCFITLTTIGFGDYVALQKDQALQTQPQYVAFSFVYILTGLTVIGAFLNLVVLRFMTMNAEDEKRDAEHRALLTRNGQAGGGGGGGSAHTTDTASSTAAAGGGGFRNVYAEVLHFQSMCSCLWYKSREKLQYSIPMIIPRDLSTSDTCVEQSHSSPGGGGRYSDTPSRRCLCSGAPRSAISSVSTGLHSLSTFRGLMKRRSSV

SMILES: CCCCS(=O)(=O)Nc1ccccc1C(=O)N[C@H](CC)c1ccc(OC)nc1 [A293, 2‐(butylsulfonylamino)‐N‐[(1R)‐1‐(6‐methoxy‐3‐pyridyl)propyl]‐benzamide]
- remaining activity at 100 µM [1]: 21.3 ± 8.7%
- remaining activity at 100 µM [2]: 28 ± 6.8%
